According to ChEMBL document CHEMBL3102722, “Diarylacylhydrazones: Clostridium-selective antibacterials with activity against stationary-phase cells” (Bioorg Med Chem Lett, 2014):
≈ marks a conversion by molar mass, not a printed value. Calls of active or inactive are those of the source. The calls are words filed in the database; no cut-off is given here.

Legend:
Enterococcus faecalis = assay: Antibacterial activity against Enterococcus faecalis ATCC 47077 assessed as growth inhibition after 20 to 24 hrs; assay type: functional
Bacteroides fragilis = assay: Antibacterial activity against Bacteroides fragilis ATCC 25285 assessed as growth inhibition after 20 to 24 hrs; assay type: functional; settings: NCTC 9343
Staphylococcus aureus = assay: Antibacterial activity against Staphylococcus aureus 8325-4 assessed as growth inhibition after 20 to 24 hrs; assay type: functional
Clostridium perfringens = assay: Antibacterial activity against Clostridium perfringens ATCC 13124 assessed as growth inhibition after 20 to 24 hrs; assay type: functional
Clostridioides difficile [1] = assay: Antibacterial activity against Clostridium difficile clinical isolate assessed as growth inhibition; assay type: functional
[2] = tested on: Limosilactobacillus reuteri; assay: Antibacterial activity against Lactobacillus reuteri ATCC 23272 assessed as growth inhibition after 20 to 24 hrs; assay type: functional
Escherichia coli = assay: Antibacterial activity against Escherichia coli ATCC 700927 assessed as growth inhibition after 20 to 24 hrs; assay type: functional
Bifidobacterium longum = assay: Antibacterial activity against Bifidobacterium longum ATCC BAA-999 assessed as growth inhibition after 20 to 24 hrs; assay type: functional
Clostridioides difficile [3] = assay: Antibacterial activity against stationary phase of Clostridium difficile CD196 assessed as cell killing at 1 to 20 X MIC after 3 to 6 hrs; assay type: functional
Streptococcus mutans = assay: Antibacterial activity against Streptococcus mutans ATCC 700610 assessed as growth inhibition after 20 to 24 hrs; assay type: functional
[4] = tested on: Bacteroides thetaiotaomicron; assay: Antibacterial activity against Bacteroides thetaiotaomicron ATCC 29148 assessed as growth inhibition after 20 to 24 hrs; assay type: functional
Clostridioides difficile [5] = assay: Antibacterial activity against Clostridium difficile CD196 assessed as growth inhibition after 20 to 24 hrs; assay type: functional
Lacticaseibacillus casei = assay: Antibacterial activity against Lactobacillus casei ATCC 334 assessed as growth inhibition after 20 to 24 hrs; assay type: functional
[6] = Cytotoxicity against human HepG2 cells assessed as concentration required to decrease cell viability incubated for 24 hrs followed by compound washout measured after 18 hrs by resazurin dye-based assay; settings: read-out: Activity
FaDu = assay: Cytotoxicity against human FADU cells assessed as concentration required to decrease cell viability incubated for 24 hrs followed by compound washout measured after 18 hrs by resazurin dye-based assay
Clostridioides difficile [7] = assay: Antibacterial activity against stationary phase of Clostridium difficile CD196 assessed as cell killing after 3 to 6 hrs; assay type: functional
Clostridioides difficile [8] = assay: Bactericidal activity against Clostridium difficile CD196 after 20 to 24 hrs; assay type: functional; settings: read-out: MBC99.9
Clostridioides difficile [9] = assay: Antibacterial activity against Clostridium difficile 10463 clinical isolate assessed as growth inhibition after 20 to 24 hrs; assay type: functional
Clostridioides difficile [10] = assay: Antibacterial activity against Clostridium difficile VPI clinical isolate assessed as growth inhibition after 20 to 24 hrs; assay type: functional
Clostridioides difficile [11] = assay: Ratio of MBC99.9 to MIC for Clostridium difficile CD196; assay type: functional
Clostridioides difficile [12] = assay: Antibacterial activity against Clostridium difficile UK6 clinical isolate assessed as growth inhibition after 20 to 24 hrs; assay type: functional
[13] = Antibacterial activity against Clostridium difficile 630 clinical isolate assessed as growth inhibition after 20 to 24 hrs; assay type: functional, Clostridioides difficile 630; settings: Clostridioides difficile
Clostridioides difficile [14] = assay: Antibacterial activity against Clostridium difficile UK1 clinical isolate assessed as growth inhibition after 20 to 24 hrs; assay type: functional
Clostridioides difficile [15] = assay: Antibacterial activity against Clostridium difficile GC1 clinical isolate assessed as growth inhibition after 20 to 24 hrs; assay type: functional

Row | SMILES | MIC (Enterococcus faecalis) [µg/mL] | MIC (Bacteroides fragilis) [µg/mL] | MIC (Staphylococcus aureus) [µg/mL] | MIC (Clostridium perfringens) [µg/mL] | MIC [2] [µg/mL] | MIC (Escherichia coli) [µg/mL] | MIC (Bifidobacterium longum) [µg/mL] | MIC (Streptococcus mutans) [µg/mL] | MIC [4] [µg/mL] | MIC (Clostridioides difficile [5]) [µg/mL] | MIC (Lacticaseibacillus casei) [µg/mL] | MBC (Clostridioides difficile [8]) [µg/mL] | other results
1 | CCc1c(Cl)c(O)c(Cl)c(O)c1C(=O)O[C@H]1[C@H](O)[C@H](OC)[C@H](OC/C2=C\C=C\C[C@H](O)/C(C)=C/[C@H](CC)[C@@H](O[C@@H]3OC(C)(C)[C@@H](OC(=O)C(C)C)[C@H](O)[C@@H]3O)/C(C)=C/C(C)=C/C[C@@H]([C@@H](C)O)OC2=O)O[C@@H]1C [FIDAXOMICIN] | 12.5 (≈ 11.8 µM) | > 50 | 3.13 (≈ 2.96 µM) | ≤ 0.0075 | > 50 | > 50 | ≤ 0.78 | 3.13 (≈ 2.96 µM) | > 50 | 0.18 (≈ 0.17 µM) | > 50 | – | MIC90 (Clostridioides difficile [1]): 0.008 µg/mL (≈ 0.00756 µM); Activity (Clostridioides difficile [3]): inactive
2 | Cc1cc(C(=O)N/N=C/c2c(O)ccc3ccccc23)[nH]n1 | > 50 | > 50 | > 50 | ≤ 3.13 | > 50 | > 50 | > 50 | > 50 | 25 (≈ 84.9 µM) | 3.13 (≈ 10.6 µM) | > 50 | 3.13 (≈ 10.6 µM) | MCC at 24 h [6]: > 100 µg/mL; Activity (FaDu): > 100 µg/mL; Activity (Clostridioides difficile [7]): Dose-dependent effect
3 | O=C(N/N=C/c1c(O)ccc2ccccc12)c1ccc(-c2ccccc2)cc1 | > 50 | > 50 | > 50 | 3.13 (≈ 8.54 µM) | > 50 | > 50 | > 50 | > 50 | > 50 | 1.56 (≈ 4.26 µM) | > 50 | 3.13 (≈ 8.54 µM) | MIC (Clostridioides difficile [9]): 3 µg/mL (≈ 8.19 µM); MIC (Clostridioides difficile [10]): 3 µg/mL (≈ 8.19 µM); Ratio (Clostridioides difficile [11]): 2; MIC (Clostridioides difficile [12]): 1.5 µg/mL (≈ 4.09 µM); MIC [13]: 1.5 µg/mL (≈ 4.09 µM); MIC (Clostridioides difficile [14]): 1.5 µg/mL (≈ 4.09 µM); MIC (Clostridioides difficile [15]): 1.5 µg/mL (≈ 4.09 µM)
